Experiments:
[1] = Solubility of EFdA Forms 1, 2 and 4 in acetonitrile as a function of temperature; assay type: physicochemical; conditions: for Solubility / Solubility Ratio (Form 1/4): acetonitrile; for Form 1 and Form 4 ΔΔG: calculated; for Relative thermodynamic stability of the phase: from solubility in acetonitrile between 25.0 and 65.0 °C
Method: The Gibbs free energy (ΔG) of a phase is the fundamental thermodynamic parameter that determines the relative stability of a polymorphs at a given temperature. The solubility of a particular polymorph is related to the ΔG by the equation ΔG=−RTln (solubility). The polymorph with the lowest solubility is considered to be the thermodynamically stable phase at a given temperature. Table 6 lists the measured solubility for Forms 1, 2 and 4 of EFdA in acetonitrile between 25.0 and 65.0° C. […] The relatively low ΔΔG values for conversion of Form 1 to Form 4 (i.e., the energy gap between Form 1 and Form 4 is small; 0.21-0.35 kJ/mol), combined with the fast crystallization kinetics of Form 1 as compared to Form 4, result in difficulties isolating Form 4 using conventional methods of polymorph screening.

[2] = Crystal form stability in hot melt extrusion (HME) of EFdA/EVA implant product, by XRD; assay type: physicochemical
Method: Anhydrate crystalline Forms 1, 2, and 4 of EFdA were isolated by hot melt extrusion (HME) processing. Micronized ethylene vinyl acetate (EVA) polymer and monohydrate crystalline Form MH of EFdA were blended with a Turbula T2F mixer at various ratios: 30, 35, 40, 45 and 50 wt % drug. The pre-blend was hot melt extruded with an 18 mm Leistritz twin screw extruder with a 25:1 L/D, throughput of 400 g/hr, temperatures ranging from 100-140° C., feed zone at 40° C., and screw speed at 30 rpm. Two screw configurations were used, both predominately consisting of conveying elements with different mixing sections. The less aggressive screw design contained a mixing section consisting of conveying, kneading elements each 15 mm in length, with twisting angles of 30°, 60°, and 60° (“HME low shear Process A”). The more aggressive screw design included additional mixing segments after the mixing section used in the less aggressive design: conveying, kneading elements each 15 mm in length, with a twisting angle of 90° (“HME high shear Process B”). For both extrusion set-ups, the strands were then air-cooled and pelletized to form micropellets. The pellets were then extruded with a ½″ American Kuhne single screw extruder with temperatures ranging from 110-140° C., feed zone at 25° C., and screw speed at 20-25 rpm to form a 2±0.05 mm diameter filament, and then cut to a length of 40±2 mm. […]

[3] = system: lymphoid derived cell lines and peripheral blood mononuclear cells; conditions: in vitro; cited from earlier work
[4] = Critical water activity from solubility in acetonitrile as a function of water content; assay type: physicochemical; conditions: 25 °C
Method: The thermodynamic parameter for the stability of the monohydrate Form MH and anhydrate Form 4 of EFdA is the critical water activity. Below this water activity, anhydrous Form 4 is thermodynamically preferred. Above this water activity, monohydrate Form MH is thermodynamically preferred. The solubility of EFdA monohydrate Form MH and anhydrate Forms 1 and 4 were determined in acetonitrile as a function of water content at 25.0° C. The critical water activity for the EFdA monohydrate/Form 4 system at 25° C. was determined to be 0.3.

| Solubility ([1]; 25.0 °C) [mg/g solv.] | Solubility ([1]; 35.0 °C) [mg/g solv.] | Solubility ([1]; 45.0 °C) [mg/g solv.] | Solubility ([1]; 55.0 °C) [mg/g solv.] | Solubility ([1]; 65.0 °C) [mg/g solv.] | Relative thermodynamic stability of the phase [1] | Structure (SMILES) | also measured |
| --- | --- | --- | --- | --- | --- | --- | --- |
| 2.15 ± 0.02 | 2.43 ± 0.01 | 3.44 ± 0.02 | 4.74 ± 0.02 | 6.81 ± 0.03 |  | C#C[C@]1(CO)O[C@@H](n2cnc3c(N)nc(F)nc32)C[C@@H]1O [Form 1, 4′-Ethynyl-2-fluoro-2′-deoxyadenosine] | Solubility Ratio (Form 1/4) ([1]; 25.0 °C): 1.15; Solubility Ratio (Form 1/4) ([1]; 35.0 °C): 1.13; Solubility Ratio (Form 1/4) ([1]; 45.0 °C): 1.08; Solubility Ratio (Form 1/4) ([1]; 55.0 °C): 1.12; Solubility Ratio (Form 1/4) ([1]; 65.0 °C): 1.13; ΔΔG for conversion of Form 1 to Form 4 (energy gap) ([1]; between 25.0 and 65.0 °C): 0.21 to 0.35 kJ/mol; Form 1 and Form 4 ΔΔG ([1]; 25.0 °C): 0.35 kJ/mol; Form 1 and Form 4 ΔΔG ([1]; 35.0 °C): 0.33 kJ/mol; Form 1 and Form 4 ΔΔG ([1]; 45.0 °C): 0.21 kJ/mol; Form 1 and Form 4 ΔΔG ([1]; 55.0 °C): 0.30 kJ/mol; Form 1 and Form 4 ΔΔG ([1]; 65.0 °C): 0.33 kJ/mol |
|  |  |  |  |  |  | C#C[C@]1(CO)O[C@@H](n2cnc3c(N)nc(F)nc32)C[C@@H]1O [Form MH, 4′-Ethynyl-2-fluoro-2′-deoxyadenosine] | Crystal form after HME processing ([2]; HME high shear Process B): converted the Form MH phase into anhydrate Form 4; Crystal form after HME processing ([2]; HME low shear Process A): converted the Form MH phase into anhydrate Form 1 and anhydrate Form 2 |
|  |  |  |  |  |  | C#C[C@]1(COP(=O)(O)OP(=O)(O)OP(=O)(O)O)O[C@@H](n2cnc3c(N)nc(F)nc32)C[C@@H]1O [EFdA-TP] | Intracellular half-life [3]: exceeds 72 hrs |
| 2.43 ± 0.01 | 3.20 ± 0.03 | 4.39 ± 0.04 | 5.79 ± 0.09 | 7.72 ± 0.12 | least stable phase | C#C[C@]1(CO)O[C@@H](n2cnc3c(N)nc(F)nc32)C[C@@H]1O [Form 2, 4′-Ethynyl-2-fluoro-2′-deoxyadenosine] |  |
| 1.87 ± 0.02 | 2.14 ± 0.02 | 3.18 ± 0.01 | 4.24 ± 0.01 | 6.05 ± 0.05 | most thermodynamically stable phase | C#C[C@]1(CO)O[C@@H](n2cnc3c(N)nc(F)nc32)C[C@@H]1O [Form 4, 4′-Ethynyl-2-fluoro-2′-deoxyadenosine] | Critical water activity, EFdA monohydrate/Form 4 system [4]: 0.3 |
